Laboratory results published in patent publication US11117900B2 (Vertex Pharmaceuticals Incorporated, priority 2012, dated 2021).

test system: HCT116 colorectal cancer cells; assay: Cisplatin sensitization assay (96 h MTS cell viability); format: cell-based; details: Cisplatin sensitization value;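 note: compound concentration needed to lower the IC50 of Cisplatin alone by a set fold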
Method in brief: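 The MTS viability read, after 1 h with reagent, followed 96 h of co-treatment at 37° C. in 5% CO2. Both compound and cisplatin were titrated 2-fold from a 10 μM top final concentration in a complete concentration matrix on HCT116 cells. Scores +++/++/+ reflect cisplatin sensitization value ranges.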

| SMILES | Cisplatin Sensitization Assay |
| --- | --- |
| CN1CCC(Oc2c(Cl)cncc2NC(=O)c2c(N)nn3cc(Cl)cnc23)CC1 [I-O-46, 2-amino-6-chloro-N-(5-chloro-4-((1-methylpiperidin-4-yl)oxy)pyridin-3-yl)pyrazolo[1,5-a]pyrimidine-3-carboxamide] | + (Compounds with a Cisplatin sensitization value >0.2 μM but <5 μM are marked with “+.”) |
| CN(C)CCOCCOc1ccncc1NC(=O)c1c(N)nn2cc(Cl)cnc12 [I-O-47, 2-amino-6-chloro-N-(4-(2-(2-(dimethylamino)ethoxy)ethoxy)pyridin-3-yl)pyrazolo[1,5-a]pyrimidine-3-carboxamide] | + (Compounds with a Cisplatin sensitization value >0.2 μM but <5 μM are marked with “+.”) |
| CN(C)CCOc1ccncc1NC(=O)c1c(N)nn2cc(Cl)cnc12 [I-O-48, 2-amino-6-chloro-N-(4-(2-(dimethylamino)ethoxy)pyridin-3-yl)pyrazolo[1,5-a]pyrimidine-3-carboxamide] | ++ (Compounds with a Cisplatin sensitization value >0.02 μM but <0.2 μM are marked with “++.”) |
| CN1CCC[C@H]1COc1ccncc1NC(=O)c1c(N)nn2cc(Cl)cnc12 [I-O-50, (S)-2-amino-6-chloro-N-(4-((1-methylpyrrolidin-2-yl)methoxy)pyridin-3-yl)pyrazolo[1,5-a]pyrimidine-3-carboxamide] | + (Compounds with a Cisplatin sensitization value >0.2 μM but <5 μM are marked with “+.”) |
| CN(C)CCCOc1ccncc1NC(=O)c1c(N)nn2cc(Cl)cnc12 [I-O-52, 2-amino-6-chloro-N-(4-(3-(dimethylamino)propoxy)pyridin-3-yl)pyrazolo[1,5-a]pyrimidine-3-carboxamide] | + (Compounds with a Cisplatin sensitization value >0.2 μM but <5 μM are marked with “+.”) |
| Nc1nn2cc(Cl)cnc2c1C(=O)Nc1cnccc1OCCCO [I-O-53, 2-amino-6-chloro-N-(4-(3-hydroxypropoxy)pyridin-3-yl)pyrazolo[1,5-a]pyrimidine-3-carboxamide] | +++ (Compounds with a Cisplatin sensitization value of <0.02 μM are marked with “+++.”) |
| Nc1nn2cc(Cl)cnc2c1C(=O)Nc1cnccc1O[C@@H]1CCOC1 [I-O-54, (R)-2-amino-6-chloro-N-(4-((tetrahydrofuran-3-yl)oxy)pyridin-3-yl)pyrazolo[1,5-a]pyrimidine-3-carboxamide] | +++ (Compounds with a Cisplatin sensitization value of <0.02 μM are marked with “+++.”) |
| COCCOc1ccncc1NC(=O)c1c(N)nn2cc(Cl)cnc12 [I-O-55, 2-amino-6-chloro-N-(4-(2-methoxyethoxy)pyridin-3-yl)pyrazolo[1,5-a]pyrimidine-3-carboxamide] | ++ (Compounds with a Cisplatin sensitization value >0.02 μM but <0.2 μM are marked with “++.”) |
| CCOc1ccncc1NC(=O)c1c(N)nn2cc(Cl)cnc12 [I-O-56, 2-amino-6-chloro-N-(4-ethoxypyridin-3-yl)pyrazolo[1,5-a]pyrimidine-3-carboxamide] | +++ (Compounds with a Cisplatin sensitization value of <0.02 μM are marked with “+++.”) |
| COc1ccncc1NC(=O)c1c(N)nn2cc(Cl)cnc12 [I-O-57, 2-amino-6-chloro-N-(4-methoxypyridin-3-yl)pyrazolo[1,5-a]pyrimidine-3-carboxamide] | +++ (Compounds with a Cisplatin sensitization value of <0.02 μM are marked with “+++.”) |
| Nc1nn2cc(Cl)cnc2c1C(=O)Nc1cnccc1O[C@H]1CCOC1 [I-O-58, (S)-2-amino-6-chloro-N-(4-((tetrahydrofuran-3-yl)oxy)pyridin-3-yl)pyrazolo[1,5-a]pyrimidine-3-carboxamide] | +++ (Compounds with a Cisplatin sensitization value of <0.02 μM are marked with “+++.”) |
| Nc1nn2cc(Cl)cnc2c1C(=O)Nc1cnccc1OCC(F)(F)F [I-O-59, 2-amino-6-chloro-N-(4-(2,2,2-trifluoroethoxy)pyridin-3-yl)pyrazolo[1,5-a]pyrimidine-3-carboxamide] | +++ (Compounds with a Cisplatin sensitization value of <0.02 μM are marked with “+++.”) |
| Nc1nn2cc(Cl)cnc2c1C(=O)Nc1cnccc1OCCN1CCOCC1 [I-O-60, 2-amino-6-chloro-N-(4-(2-morpholinoethoxy)pyridin-3-yl)pyrazolo[1,5-a]pyrimidine-3-carboxamide] | ++ (Compounds with a Cisplatin sensitization value >0.02 μM but <0.2 μM are marked with “++.”) |
| Nc1nn2cc(Cl)cnc2c1C(=O)Nc1cnccc1OC1CCOCC1 [I-O-61, 2-amino-6-chloro-N-(4-((tetrahydro-2H-pyran-4-yl)oxy)pyridin-3-yl)pyrazolo[1,5-a]pyrimidine-3-carboxamide] | +++ (Compounds with a Cisplatin sensitization value of <0.02 μM are marked with “+++.”) |
| Nc1nn2cc(Cl)cnc2c1C(=O)Nc1cnccc1OC1CN2CCC1CC2 (stereo not drawn) [I-O-62, 2-amino-6-chloro-N-(4-(quinuclidin-3-yloxy)pyridin-3-yl)pyrazolo[1,5-a]pyrimidine-3-carboxamide] | +++ (Compounds with a Cisplatin sensitization value of <0.02 μM are marked with “+++.”) |
| CN1CCC(Oc2ccncc2NC(=O)c2c(N)nn3cc(Cl)cnc23)CC1 [I-O-64, 2-amino-6-chloro-N-(4-((1-methylpiperidin-4-yl)oxy)pyridin-3-yl)pyrazolo[1,5-a]pyrimidine-3-carboxamide] | +++ (Compounds with a Cisplatin sensitization value of <0.02 μM are marked with “+++.”) |
| Nc1nn2cc(Cl)cnc2c1C(=O)Nc1cnccc1OC1CCCOC1 (stereo not drawn) [I-O-65, 2-amino-6-chloro-N-(4-((tetrahydro-2H-pyran-3-yl)oxy)pyridin-3-yl)pyrazolo[1,5-a]pyrimidine-3-carboxamide] | +++ (Compounds with a Cisplatin sensitization value of <0.02 μM are marked with “+++.”) |
| Nc1nn2cc(Cl)cnc2c1C(=O)Nc1cnccc1OCCO [I-O-66, 2-amino-6-chloro-N-(4-(2-hydroxyethoxy)pyridin-3-yl)pyrazolo[1,5-a]pyrimidine-3-carboxamide] | + (Compounds with a Cisplatin sensitization value >0.2 μM but <5 μM are marked with “+.”) |
| COCCN1CCC[C@H](Oc2ccncc2NC(=O)c2c(N)nn3cc(Cl)cnc23)C1 [I-O-67, (S)-2-amino-6-chloro-N-(4-((1-(2-methoxyethy)piperidin-3-yl)oxy)pyridin-3-yl)pyrazolo[1,5-a]pyrimidine-3-carboxamide] | ++ (Compounds with a Cisplatin sensitization value >0.02 μM but <0.2 μM are marked with “++.”) |
| CN(C)CCOc1cc(Cl)ncc1NC(=O)c1c(N)nn2cc(Cl)cnc12 [I-O-68, 2-amino-6-chloro-N-(6-chloro-4-(2-(dimethylamino)ethoxy)pyridin-3-yl)pyrazolo[1,5-a]pyrimidine-3-carboxamide] | ++ (Compounds with a Cisplatin sensitization value >0.02 μM but <0.2 μM are marked with “++.”) |
| CN1CC[C@H](Oc2ccncc2NC(=O)c2c(N)nn3cc(Cl)cnc23)C1 [I-O-69, (S)-2-amino-6-chloro-N-(4-((1-methylpyrrolidin-3-yl)oxy)pyridin-3-yl)pyrazolo[1,5-a]pyrimidine-3-carboxamide] | ++ (Compounds with a Cisplatin sensitization value >0.02 μM but <0.2 μM are marked with “++.”) |
| Nc1nn2cc(Cl)cnc2c1C(=O)Nc1cnccc1Oc1cccnc1 [I-O-70, 2-amino-6-chloro-N-(4-(pyridin-3-yloxy)pyridin-3-yl)pyrazolo[1,5-a]pyrimidine-3-carboxamide] | +++ (Compounds with a Cisplatin sensitization value of <0.02 μM are marked with “+++.”) |
| CN(C)CCOc1cc(C(F)(F)F)ncc1NC(=O)c1c(N)nn2cc(Cl)cnc12 [I-O-71, 2-amino-6-chloro-N-(4-(2-(dimethylamino)ethoxy)-6-(trifluoromethyl)pyridin-3-yl)pyrazolo[1,5-a]pyrimidine-3-carboxamide] | + (Compounds with a Cisplatin sensitization value >0.2 μM but <5 μM are marked with “+.”) |
| Nc1nn2cc(Cl)cnc2c1C(=O)Nc1cnccc1OC1CC2(CNC2)C1 [I-O-72, N-(4-(2-azaspiro[3.3]heptan-6-yloxy)pyridin-3-yl)-2-amino-6-chloropyrazolo[1,5-a]pyrimidine-3-carboxamide] | + (Compounds with a Cisplatin sensitization value >0.2 μM but <5 μM are marked with “+.”) |
| Nc1nn2cc(Cl)cnc2c1C(=O)Nc1cnccc1OC1CNC1 [I-O-73, 2-amino-N-(4-(azetidin-3-yloxy)pyridin-3-yl)-6-chloropyrazolo[1,5-a]pyrimidine-3-carboxamide] | + (Compounds with a Cisplatin sensitization value >0.2 μM but <5 μM are marked with “+.”) |
| Nc1nn2cc(Cl)cnc2c1C(=O)Nc1cnccc1OC1CCCNC1 (stereo not drawn) [I-O-75, 2-amino-6-chloro-N-(4-(piperidin-3-yloxy)pyridin-3-yl)pyrazolo[1,5-a]pyrimidine-3-carboxamide] | ++ (Compounds with a Cisplatin sensitization value >0.02 μM but <0.2 μM are marked with “++.”) |
| Nc1nn2cc(Cl)cnc2c1C(=O)Nc1cnccc1O[C@H]1CCNC1 [I-O-76, (S)-2-amino-6-chloro-N-(4-(pyrrolidin-3-yloxy)pyridin-3-yl)pyrazolo[1,5-a]pyrimidine-3-carboxamide] | ++ (Compounds with a Cisplatin sensitization value >0.02 μM but <0.2 μM are marked with “++.”) |
| Nc1nn2cc(Cl)cnc2c1C(=O)Nc1cnccc1O[C@H]1C[C@]2(CCN2)C1 [I-O-78, N-(4-((4s,6r)-1-azaspiro[3.3]heptan-6-yloxy)pyridin-3-yl)-2-amino-6-chloropyrazolo[1,5-a]pyrimidine-3-carboxamide] | + (Compounds with a Cisplatin sensitization value >0.2 μM but <5 μM are marked with “+.”) |
| Nc1nn2cc(Cl)cnc2c1C(=O)Nc1cnccc1O[C@H]1C[C@@]2(CCN2)C1 [I-O-79] | ++ (Compounds with a Cisplatin sensitization value >0.02 μM but <0.2 μM are marked with “++.”) |
| Nc1nn2cc(Cl)cnc2c1C(=O)Nc1cnccc1OC1CCNCC1 [I-O-80, 2-amino-6-chloro-N-(4-(piperidin-4-yloxy)pyridin-3-yl)pyrazolo[1,5-a]pyrimidine-3-carboxamide] | +++ (Compounds with a Cisplatin sensitization value of <0.02 μM are marked with “+++.”) |
